Data published in PubChem BioAssay AID1996.
In brackets after ≈: the same amount, converted by molar mass.

details: buffer; pH 7.4; 200.0 µM

With `CCc1ccccc1NCc1cc(=O)oc2cc(C)ccc12` as the molecule, how does the solubility kinetic read?
Its solubility kinetic is 0.7 µg/mL (≈ 2.39 µM).

Which solubility kinetic does the source give for `Cc1ccc(S(=O)(=O)N2CCOCC2)cc1C(=O)N1CCc2ccccc21` here?
Its solubility kinetic is 54.3 µg/mL (≈ 141 µM).

Which solubility kinetic does the source give for `O=C(CSc1ccc(C(F)(F)F)cc1[N+](=O)[O-])N1CCOCC1` here?
The solubility kinetic was 22.9 µg/mL (≈ 65.4 µM).

Which solubility kinetic does the source give for `COC(=O)CNC(=O)COC(=O)/C=C/c1cccs1` here?
Its solubility kinetic is over 42.5 µg/mL.

With `CC(=O)c1sc(C(C)(C)C)cc1NC(=O)CCC(=O)O` as the molecule, how does the solubility kinetic read?
The solubility kinetic was over 44.6 µg/mL.

For `O=c1oc(/C=C/c2ccc([N+](=O)[O-])s2)nc2ccccc12`, which solubility kinetic is on record?
The solubility kinetic was 0.5 µg/mL (≈ 1.67 µM).

For `CN1CCN(c2ccccc2NC(=O)c2ccccc2F)CC1`, which solubility kinetic is on record?
Its solubility kinetic is over 47 µg/mL.

For `COc1ccc(CCNC(=O)c2ccc3c(c2)OCO3)cc1`, which solubility kinetic is on record?
Its solubility kinetic is 2.5 µg/mL (≈ 8.35 µM).

Which solubility kinetic does the source give for `O=C(COC(=O)C1CCC1)NC(=O)c1ccccc1` here?
The solubility kinetic was over 39.2 µg/mL.

With `CC(NC(=O)Nc1ccc(F)cc1F)c1ccc2c(c1)OCO2` (centres undefined) as the molecule, how does the solubility kinetic read?
The solubility kinetic was 2.4 µg/mL (≈ 7.49 µM).

With `Cc1ccc(C)n1-c1cc([N+](=O)[O-])ccc1-n1ccnc1` as the molecule, how does the solubility kinetic read?
The solubility kinetic was 35.9 µg/mL (≈ 127 µM).

For `O=C(c1cccc(Cl)c1)N1CCn2c1nc1ccccc12`, which solubility kinetic is on record?
Its solubility kinetic is 0.9 µg/mL (≈ 3.02 µM).

For `CC(C)N(C(=S)Nc1cccc(C(F)(F)F)c1)C(C)c1ccccn1` (centres undefined), which solubility kinetic is on record?
Its solubility kinetic is 6.7 µg/mL (≈ 18.2 µM).

Which solubility kinetic does the source give for `COc1ccccc1CC(=O)Nc1ccc2c(C)cc(=O)oc2c1` here?
Its solubility kinetic is 3.6 µg/mL (≈ 11.1 µM).

Which solubility kinetic does the source give for `CCOc1ncccc1C(=O)OCC(=O)NCc1ccccc1` here?
Its solubility kinetic is 45.9 µg/mL (≈ 146 µM).

With `CC1=CC(C)(C)NC(=S)N1c1ccccc1C` as the molecule, how does the solubility kinetic read?
Its solubility kinetic is 13.6 µg/mL (≈ 55.2 µM).

Which solubility kinetic does the source give for `Cc1nc(SCC(=O)Nc2ccccc2Cl)c2c(C)c(C)sc2n1` here?
The solubility kinetic was 3.9 µg/mL (≈ 10.3 µM).

Which solubility kinetic does the source give for `Cc1ccc(NC(=O)N(CCC(=O)O)Cc2ccccc2)cc1` here?
The solubility kinetic was over 46.9 µg/mL.

Which solubility kinetic does the source give for `NC(=O)c1ccc(N=Cc2c(O)ccc3ccccc23)cc1` here?
The solubility kinetic was 10.3 µg/mL (≈ 35.5 µM).

Which solubility kinetic does the source give for `O=c1cc(-c2ccccc2)nc(Cc2c(Cl)cccc2Cl)[nH]1` here?
Its solubility kinetic is under 0.4 µg/mL.

For `CN1C(=O)c2ccccc2N(C)C1c1ccccc1Cl` (centres undefined), which solubility kinetic is on record?
The solubility kinetic was over 43 µg/mL.

With `COc1cccc(C(=O)OCC(=O)NCC2CCCO2)c1` (centres undefined) as the molecule, how does the solubility kinetic read?
The solubility kinetic was over 44 µg/mL.

For `CCCCCc1c(O)nc(SCCN(CC)CC)[nH]c1=O.Cl`, which solubility kinetic is on record?
The solubility kinetic was over 52.5 µg/mL.

For `CC(CCc1ccccc1)NC(=O)CNC(=O)c1cccs1` (centres undefined), which solubility kinetic is on record?
Its solubility kinetic is over 47.5 µg/mL.

Which solubility kinetic does the source give for `COc1ccc(NC(=O)C23CC4CC(CC(Cl)(C4)C2)C3)cc1S(=O)(=O)N1CCOCC1` here?
Its solubility kinetic is 3.3 µg/mL (≈ 7.04 µM).

With `COc1ccccc1NC(=O)c1ccc(NC(=O)c2ccco2)cc1` as the molecule, how does the solubility kinetic read?
The solubility kinetic was 8.5 µg/mL (≈ 25.3 µM).

With `CC(C)c1ccc(NC(=O)CCCC(=O)NCCc2ccccc2)cc1` as the molecule, how does the solubility kinetic read?
Its solubility kinetic is 6 µg/mL (≈ 17 µM).

Which solubility kinetic does the source give for `Cc1ccc(C(=O)N/C(=C\c2cn(C)c3ccccc23)C(=O)OCCN(C)C)cc1` here?
Its solubility kinetic is 58.9 µg/mL (≈ 145 µM).

Which solubility kinetic does the source give for `NS(=O)(=O)c1ccc(NC(=O)c2ccc3c(c2)OCO3)cc1` here?
Its solubility kinetic is under 0.3 µg/mL.

For `COc1cc(C(CN)CC(=O)O)ccc1O.Cl` (centres undefined), which solubility kinetic is on record?
The solubility kinetic was over 39.3 µg/mL.

With `CC1Cc2ccccc2N1Cc1cccc([N+](=O)[O-])c1` (centres undefined) as the molecule, how does the solubility kinetic read?
Its solubility kinetic is 3.6 µg/mL (≈ 13.4 µM).

With `Cc1ccccc1OCC(=O)Nc1ccncc1` as the molecule, how does the solubility kinetic read?
The solubility kinetic was over 36.3 µg/mL.

For `CNC(=S)Nc1ccc(N2CCCC2)c(S(=O)(=O)Nc2ccc(OC)cc2)c1`, which solubility kinetic is on record?
Its solubility kinetic is 34.6 µg/mL (≈ 82.3 µM).

With `COCCNC(=O)C(=O)NNC(=O)CCc1ccccc1` as the molecule, how does the solubility kinetic read?
Its solubility kinetic is over 44 µg/mL.

With `O=C(Nc1ccc(Cl)cc1)C1CCCC1` as the molecule, how does the solubility kinetic read?
The solubility kinetic was 15.8 µg/mL (≈ 70.6 µM).

For `CCOc1ccccc1OCCC(=O)OCC(=O)c1ccc[nH]1`, which solubility kinetic is on record?
Its solubility kinetic is 21.8 µg/mL (≈ 68.7 µM).

With `CCOc1cccc(C(=O)N/N=C/c2ccoc2)c1` as the molecule, how does the solubility kinetic read?
Its solubility kinetic is over 38.7 µg/mL.

For `N#Cc1ccc(S(=O)(=O)Nc2ccccc2N2CCOCC2)cc1`, which solubility kinetic is on record?
Its solubility kinetic is over 51.5 µg/mL.

With `Cc1ccc2nc(SCC(=O)NCc3cccs3)[nH]c2c1` as the molecule, how does the solubility kinetic read?
Its solubility kinetic is over 47.6 µg/mL.

With `COc1cc(C#N)c(NC(=O)CN2CCC(C(N)=O)CC2)cc1OC` as the molecule, how does the solubility kinetic read?
Its solubility kinetic is over 52 µg/mL.

For `Cc1c2ccccc2nc2ccccc12`, which solubility kinetic is on record?
The solubility kinetic was 7.9 µg/mL (≈ 40.9 µM).

Which solubility kinetic does the source give for `O=C(CN1CCN(c2ccc(O)cc2)CC1)N1CCc2ccccc21` here?
Its solubility kinetic is 5 µg/mL (≈ 14.8 µM).

For `CC1CCCCN1C(=O)CSc1nc(-c2ccccc2)cn1N` (centres undefined), which solubility kinetic is on record?
Its solubility kinetic is over 49.6 µg/mL.

Which solubility kinetic does the source give for `COc1ccc(CCNC(=O)c2oc3ccc(OC)cc3c2C)cc1` here?
Its solubility kinetic is 2.3 µg/mL (≈ 6.78 µM).

Which solubility kinetic does the source give for `NC(=O)c1ccsc1NC(=O)CSc1nncs1` here?
Its solubility kinetic is over 45.1 µg/mL.

Which solubility kinetic does the source give for `NS(=O)(=O)c1cccc(NC(=O)CN2CCCc3ccccc32)c1` here?
The solubility kinetic was over 51.8 µg/mL.

Which solubility kinetic does the source give for `Cc1cc(C(F)(F)F)nc(SCCN2CCOCC2)c1C#N` here?
The solubility kinetic was 43.3 µg/mL (≈ 131 µM).

Which solubility kinetic does the source give for `CC(C)c1cc(=O)[nH]c(SCC(=O)NC2CCCC2)n1` here?
The solubility kinetic was over 44.3 µg/mL.

For `COc1ccc(NC(=O)CN(c2c(C)cccc2C)S(C)(=O)=O)cc1`, which solubility kinetic is on record?
Its solubility kinetic is 48.1 µg/mL (≈ 133 µM).

With `O=C(O)COc1ccccc1/C=N/NC(=O)c1ccc(F)cc1` as the molecule, how does the solubility kinetic read?
The solubility kinetic was over 47.4 µg/mL.

For `Cc1ccc2c(C(=O)CN3CCC(C(N)=O)CC3)c(C)[nH]c2c1`, which solubility kinetic is on record?
The solubility kinetic was over 47 µg/mL.

For `C#CCN1CCN(c2ccc(F)cc2)CC1`, which solubility kinetic is on record?
The solubility kinetic was 30 µg/mL (≈ 137 µM).

Which solubility kinetic does the source give for `N#Cc1nc(-c2ccc(Cl)cc2)oc1NCC1CCCO1` (centres undefined) here?
Its solubility kinetic is 2.5 µg/mL (≈ 8.23 µM).

With `CCCCNC(=O)COCc1cc(-c2ccc3c(c2)OCO3)on1` as the molecule, how does the solubility kinetic read?
Its solubility kinetic is 19.5 µg/mL (≈ 58.7 µM).

Which solubility kinetic does the source give for `O=C(Nc1ccc(Nc2ccccc2)cc1)c1ccc(F)cc1` here?
Its solubility kinetic is 0.7 µg/mL (≈ 2.29 µM).

For `CC1CCC2(CC1)NC(=O)N(CC(=O)N1CCOCC1)C2=O` (centres undefined), which solubility kinetic is on record?
The solubility kinetic was over 46.4 µg/mL.

With `CNC(=O)COC(=O)/C=C/c1ccco1` as the molecule, how does the solubility kinetic read?
Its solubility kinetic is over 31.4 µg/mL.

For `O=C(O)C1(Cc2nc3ccccc3[nH]2)CCCC1`, which solubility kinetic is on record?
The solubility kinetic was 26.8 µg/mL (≈ 110 µM).

With `Cc1cc(C)cc(C(=O)N(C)C2CCCN(Cc3ccccc3F)C2)c1` (centres undefined) as the molecule, how does the solubility kinetic read?
The solubility kinetic was over 53.2 µg/mL.
